The values that follow come from patent US11071731B2, “Allosteric modulators of the mu opioid receptor” (Chiromics, LLC, priority 2017, dated 2021).

Test [1] addresses T1, mu opioid receptor (MOR) (Homo sapiens, UniProt P35372). Briefly: PathHunter β-arrestin recruitment assay, PAM mode with EC20 endomorphin-1. In kind it is cell-based. Particulars: for EC50: read-out: β-arr. EC50. In short, it runs like this: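 Enzyme fragment complementation read-out: β-gal ED fragment fused to receptor, EA fused to β-arrestin, recruitment restoring β-gal activity detected by chemiluminescence. EC50 and percent maximal response derived for each compound.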
(In general: Recruitment of arrestin is a read-out of receptor activation apart from second messengers.)

The target in test [2] is T1, mu opioid receptor (MOR). Put plainly: Hit Hunter cAMP signaling assay (adenylyl cyclase inhibition), PAM mode with EC20 endomorphin-1. In kind it is cell-based.
The mark [3] stands for this setting: maximal response, β-arrestin recruitment.
Where [4] appears, read: cAMP EC50, adenylyl cyclase inhibition.
The mark [5] stands for this setting: maximal response, adenylyl cyclase inhibition.
Where [6] appears, read: maximal response for β-arrestin recruitment.
Setting [7] is: maximal response for adenylyl cyclase inhibition.
The mark [8] stands for this setting: maximal response for β-arrestin recruitment, Table 3.
Setting [9] is: β-arrestin recruitment, Table 3.
Where [10] appears, read: maximal response for adenylyl cyclase inhibition, Table 3.
[11] abbreviates: adenylyl cyclase inhibition, read-out: cAMP EC50.

T1 sequence (P35372 whole entry, the tested form may be a part): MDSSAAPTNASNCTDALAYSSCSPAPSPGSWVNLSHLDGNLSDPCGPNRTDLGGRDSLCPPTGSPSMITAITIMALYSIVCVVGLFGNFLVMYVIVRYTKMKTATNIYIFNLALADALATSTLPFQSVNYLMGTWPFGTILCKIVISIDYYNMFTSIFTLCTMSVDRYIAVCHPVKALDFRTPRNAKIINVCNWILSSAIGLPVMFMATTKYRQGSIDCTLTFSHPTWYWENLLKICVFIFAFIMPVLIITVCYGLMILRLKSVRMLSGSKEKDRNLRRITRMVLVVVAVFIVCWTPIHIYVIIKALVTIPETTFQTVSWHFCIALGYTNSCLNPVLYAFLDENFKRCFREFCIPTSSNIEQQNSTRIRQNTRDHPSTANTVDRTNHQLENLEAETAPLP

As for `COc1ccc(C2CCCCN2S(=O)(=O)c2ccn(C)n2)cc1Br` (stereo not shown) [compound 483], in test [1] (setting [3]), the “β-arr Max. Resp.” value is given as “D (D represents a maximal response of < 40%)”. Besides, the half-maximal effective concentration (EC50) in test [1] (β-arrestin recruitment) and in test [2] (setting [4]) was > 2100 nM in each case. The “cAMP Max. Resp.” value in test [2] (setting [5]) is “D (D represents a maximal response of < 40%)”.
With `Fc1cnc(Cl)nc1N1CCCCC1c1cccc(Cl)c1F` (stereo not shown) [compound 369], in test [1] (setting [6]), the “β-arr Max. Resp.” value is recorded as “D (D represents a maximal response of < 40%)”. Further, the EC50 in test [1] (β-arrestin recruitment) and in test [2] (setting [4]) was < 700 nM each time. In test [2] (setting [7]), the “cAMP Max. Resp.” value is on record as “D (D represents a maximal response of < 40%)”.
As to `Fc1cccc(C2CCCCN2Cc2cc(Cl)ccc2F)n1` (stereo not shown) [compound 171], the “β-arr Max. Resp.” value in test [1] (setting [6]) is “F (F represents a maximal response of > 60%)”. Besides, the EC50 in test [1] (β-arrestin recruitment) and in test [2] (setting [4]) was 700 to 2100 nM in each case. Further, the “cAMP Max. Resp.” value in test [2] (setting [7]) was “E (E represents a maximal response of 40-60%)”.
Regarding `OC1CCC(c2cc(F)cc(C(F)(F)F)c2)N(c2nc(Cl)ncc2F)C1` (stereo not shown) [compound 311], in test [1] (setting [6]), the “β-arr Max. Resp.” value is recorded as “F (F represents a maximal response of > 60%)”. Also, the EC50 in test [1] (β-arrestin recruitment) is > 2100 nM; in test [2] (setting [4]), 700 to 2100 nM. Further, the “cAMP Max. Resp.” value in test [2] (setting [7]) was “F (F represents a maximal response of > 60%)”.
Take `[2H]C1(c2cccc(C(F)(F)F)c2)C(F)CCCN1c1nc(Cl)ncc1F` (stereo not shown) [compound 207]: in test [1] (setting [6]), the “β-arr Max. Resp.” value is listed as “F (F represents a maximal response of > 60%)”. Besides, the “β-arr. Max Resp.” value in test [1] (setting [8]) is given as 116. Moreover, the concentration giving a half-maximal response (EC50) in test [1] (setting [9]) is 1170 nM; in test [1] (β-arrestin recruitment) it was 700 to 2100 nM; in test [2] (cAMP EC50 (nM), adenylyl cyclase inhibition, Table 3) it was 969 nM; in test [2] (setting [4]), 700 to 2100 nM. Further, the “cAMP Max. Resp.” value in test [2] (setting [7]) is “D (D represents a maximal response of < 40%)”. Besides, the “cAMP Max Resp.” value in test [2] (setting [10]) was determined as 34.
`FC(F)(F)c1cccc(CN2CCCCC2c2cccc(C(F)(F)F)n2)c1` (stereo not shown) [compound 175]: the “β-arr Max. Resp.” value in test [1] (setting [6]) is “F (F represents a maximal response of > 60%)”. Further, the EC50 in test [1] (β-arrestin recruitment) and in test [2] (setting [4]) was > 2100 nM in each case. Moreover, the “cAMP Max. Resp.” value in test [2] (setting [7]) is “E (E represents a maximal response of 40-60%)”.
Turning to `Fc1cnc(Cl)nc1N1CC(F)(F)CC1c1cccc(C(F)(F)F)n1` (stereo not shown) [compound 482], the “β-arr Max. Resp.” value in test [1] (setting [3]) was “D (D represents a maximal response of < 40%)”. The EC50 in test [1] (β-arrestin recruitment) and in test [2] (setting [11]) was > 2100 nM throughout. Besides, the “cAMP Max. Resp.” value in test [2] (setting [5]) was “D (D represents a maximal response of < 40%)”.
For the compound `CC1CCN(S(=O)(=O)c2ccc(Cl)cc2)C1c1ccc(F)c(C(F)(F)F)c1` (mixture of isomers) [compound 100], the “β-arr Max. Resp.” value in test [1] (setting [6]) is “F (F represents a maximal response of > 60%)”. Also, the “β-arr. Max Resp.” value in test [1] (setting [8]) is listed as 76. Also, the EC50 was 522 nM in test [1] (setting [9]); < 700 nM in test [1] (β-arrestin recruitment); > 25000 nM in test [2] (adenylyl cyclase inhibition, Table 3, read-out: cAMP EC50); > 2100 nM in test [2] (setting [11]). Further, in test [2] (setting [7]), the “cAMP Max. Resp.” value is reported as “D (D represents a maximal response of < 40%)”. The “cAMP Max Resp.” value in test [2] (setting [10]) worked out at 25.
As to `CN(C)c1cccc(C2CCCCN2Cc2cc(Cl)ccc2F)n1` (stereo not shown) [compound 149], the “β-arr Max. Resp.” value in test [1] (setting [6]) is “F (F represents a maximal response of > 60%)”. Besides, the concentration giving a half-maximal response (EC50) in test [1] (β-arrestin recruitment) and in test [2] (setting [4]) was > 2100 nM in each case. Also, in test [2] (setting [7]), the “cAMP Max. Resp.” value is listed as “E (E represents a maximal response of 40-60%)”.
In the case of `CC1CCN(S(=O)(=O)c2ccc(Cl)cc2)C1c1cccc(C(F)(F)F)c1` (mixture of isomers) [Compound 89], the “β-arr Max. Resp.” value in test [1] (setting [6]) is “F (F represents a maximal response of > 60%)”. Besides, the values for the EC50 in test [1] (β-arrestin recruitment) and in test [2] (setting [11]) were 700 to 2100 nM and > 2100 nM, respectively. In addition, the “cAMP Max. Resp.” value in test [2] (setting [7]) is reported as “D (D represents a maximal response of < 40%)”.
As to `COc1ccc(C2CC(F)(F)CN2c2nc(Cl)ncc2F)cc1Br` (stereo not shown) [compound 466], the “β-arr Max. Resp.” value in test [1] (setting [3]) was “F (F represents a maximal response of > 60%)”. Besides, the EC50 in test [1] (β-arrestin recruitment) and in test [2] (setting [11]) was > 2100 nM throughout. In test [2] (setting [5]), the “cAMP Max. Resp.” value is “D (D represents a maximal response of < 40%)”.
Consider `FC(F)(F)c1cccc(C2CCCCN2Cc2cccc(Cl)n2)n1` (stereo not shown) [compound 165], for which the “β-arr Max. Resp.” value in test [1] (setting [6]) is reported as “F (F represents a maximal response of > 60%)”. Moreover, the half-maximal effective concentration (EC50) was > 2100 nM in test [1] (β-arrestin recruitment) and 700 to 2100 nM in test [2] (setting [4]). In addition, the “cAMP Max. Resp.” value in test [2] (setting [7]) is “F (F represents a maximal response of > 60%)”.
`Fc1cc(C2CCC(OCCN3CCOCC3)CN2c2nc(Cl)ncc2F)cc(C(F)(F)F)c1` (stereo not shown) [compound 304]: in test [1] (setting [6]), the “β-arr Max. Resp.” value is “D (D represents a maximal response of < 40%)”. The EC50 in test [1] (β-arrestin recruitment) and in test [2] (setting [11]) was > 2100 nM throughout. Further, the “cAMP Max. Resp.” value in test [2] (setting [7]) is on record as “D (D represents a maximal response of < 40%)”.
Turning to `Cc1ncccc1C1CCCCN1c1nc(Cl)ncc1F` (stereo not shown) [compound 407], the “β-arr Max. Resp.” value in test [1] (setting [6]) was “D (D represents a maximal response of < 40%)”. The EC50 in test [1] (β-arrestin recruitment) and in test [2] (setting [4]) was < 700 nM throughout. Further, in test [2] (setting [7]), the “cAMP Max. Resp.” value was “D (D represents a maximal response of < 40%)”.

For orientation: EC50 means the concentration at which the effect is half-maximal.
